Measurements taken from article PMC8809056 (Science (New York, N.y.), 2021).

What was measured:
[1] = system: 3CL; design: method as in doi:10.1101/2020.08.29.272864; conditions: read-out: Previously reported IC50 in cells; cited from earlier work
[2] = system: OC43; assay: OC43 infection of A549 cells, viral nucleoprotein staining; format: cell-based, human beta coronavirus OC43; conditions: for EC50: Betacoronavirus 1, OC43, A549, 96 h, read-out: EC50 against OC43 infection; for Inhibition of OC43 infection, dose-response validation (in words): A549 cells
[3] = system: SARS-CoV-2 (nCoV/Washington/1/2020); format: in vivo, mice
[4] = biological target: T1, SARS-CoV-2 3CL (Severe acute respiratory syndrome coronavirus 2, UniProt P0DTD1); assay: Fluorescence-based 3CL enzyme activity assay in vitro (enzyme kinetics, Dixon plot); format: biochemical; conditions: range of substrate and inhibitor concentrations, SigmaPlot fit
T1 construct: the main viral protease, known as Mpro, 3CLpro, or nonstructural protein 5 (nsp5); made in house
Source text: Individual measurements are shown as semitransparent gray circles. Error bars depict means ± SEM. […] Individual measurements are shown as circles. […] RFU, relative fluorescence units.
To test this, we measured the rate of the 3CL enzymatic reaction in vitro using a fluorescence-based enzyme activity assay ([29]). We measured the rate of 3CL activity in a range of substrate and inhibitor concentrations and fitted the data to equations describing different modes of inhibition using SigmaPlot Enzyme Kinetics Module 1.3 (see methods).

[5] = mouse, in vivo
[6] = system: other RNA viruses; assay: Replication of other RNA viruses; format: cell-based
[7] = system: multiple picornaviruses; assay: Replication of picornaviruses; format: cell-based; conditions: fig. S8B
[8] = biological target: 3C protease (Coxsackievirus B3, UniProt P03313); format: cell-based, picornaviruses
Chain of 3C protease (P03313 1541-1723 limits assumed): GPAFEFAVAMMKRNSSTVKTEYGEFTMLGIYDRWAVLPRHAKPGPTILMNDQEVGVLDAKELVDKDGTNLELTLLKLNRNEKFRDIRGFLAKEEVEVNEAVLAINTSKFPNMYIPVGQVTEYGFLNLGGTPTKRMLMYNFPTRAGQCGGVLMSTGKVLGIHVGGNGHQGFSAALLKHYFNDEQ

[9] = feline model of asthma; cited from earlier work
[10] = biological target: T2, PLpro (Severe acute respiratory syndrome coronavirus 2, UniProt P0DTD1); assay: PLpro activity assay; format: biochemical, SARS-CoV-2; conditions: fig. S7
T2 construct: the papain-like protease, PLpro, a domain within nsp3

[11] = 25 mg kg−1 twice a day, day six

O=C(Oc1cncc(Cl)c1)c1cccc2[nH]ccc12 [GRL-0496]
IC50 [1]: 5000 nM

Cc1ccc(NC(=O)c2ccc(CN3CC[C@H](N(C)C)C3)c(C(F)(F)F)c2)cc1Nc1nccc(-c2cncnc2)n1 [Bafetinib]
EC50 [2]: 2100 nM

O=C(c1ccc(OCCN2CCCCC2)cc1)c1c(-c2ccc(O)cc2)sc2cc(O)ccc12 [Raloxifene]
EC50 [2]: 2700 nM

C[C@@H]1[C@H](O)[C@@H](C)/C=C/C=C/C=C/C=C/C=C/C=C/C=C/[C@H](O[C@@H]2O[C@H](C)[C@@H](O)[C@H](N)[C@@H]2O)C[C@@H]2O[C@](O)(C[C@@H](O)C[C@@H](O)[C@H](O)CC[C@@H](O)C[C@@H](O)CC(=O)O[C@H]1C)C[C@H](O)[C@H]2C(=O)O [Amphotericin B]
EC50 [2]: 190 nM

OCCN1CCN(CCC=C2c3ccccc3Sc3ccc(C(F)(F)F)cc32)CC1 [Flupenthixol]
EC50 [2]: 1800 nM

CC[C@H]1OC(=O)[C@H](C)[C@@H](O[C@H]2C[C@@](C)(OC)[C@@H](O)[C@H](C)O2)[C@H](C)[C@@H](O[C@@H]2O[C@H](C)C[C@H](N(C)C)[C@H]2O)[C@](C)(O)C[C@@H](C)C(=O)[C@H](C)[C@@H](O)[C@]1(C)O [erythromycin]
Inhibition of OC43 infection, dose-response validation (in words) [2]: failed validation

COC(=O)N[C@H](C(=O)N1CCC[C@H]1c1nc(-c2ccc3c(c2)O[C@@H](c2ccccc2)n2c-3cc3cc(-c4c[nH]c([C@@H]5CCCN5C(=O)[C@@H](NC(=O)OC)C(C)C)n4)ccc32)c[nH]1)C(C)C [Elbasvir]
EC50 [2]: 170 nM

CS(=O)(=O)CCNCc1ccc(-c2ccc3ncnc(Nc4ccc(OCc5cccc(F)c5)c(Cl)c4)c3c2)o1 [Lapatinib]
EC50 [2]: 3100 nM

Cc1ccc(O)c([C@H](CCN(C(C)C)C(C)C)c2ccccc2)c1 [tolertodine]
Inhibition of OC43 infection, dose-response validation (in words) [2]: weak inhibitors of OC43 infection

CCCCOC(=O)c1ccc(O)cc1 [Butylparaben]
EC50 [2]: 1700 nM

CCCCOC(=O)c1ccc(N)cc1 [Butamben]
EC50 [2]: 3100 nM

CCC(CC)COC(=O)[C@H](C)N[P@](=O)(OC[C@H]1O[C@@](C#N)(c2ccc3c(N)ncnn23)[C@H](O)[C@@H]1O)Oc1ccccc1 [Remdesivir]
EC50 [2]: 960 nM

Cc1ccc(NC(=O)c2ccc(CN3CCN(C)CC3)cc2)cc1Nc1nc(-c2cccnc2)cs1 [Masitinib]
Reduction in viral titers in the lungs and nose (log) [3, 11]: greater than two-log reduction
Reduction of the viral load [3, 11]: > 99%
Concentrations of proinflammatory cytokines (such as IL-1β, IFN-γ) in the lungs ([3]; day six): significantly reduced
Overall lung pathology ([3]; day six, blindly scored 0 to 4): improved overall lung pathology
Reduction in viral titers in the lungs ([3]; mouse, in vivo): > 200 fold
Reduction in viral titers in the nose ([3]; mouse, in vivo): > 200 fold
Survival, weight loss and clinical scores ([3]; up to 10 days): improvements in survival
Mode of 3CL inhibition [4]: competitive inhibition gave the best fit
Tolerability of dose [5]: well tolerated, with minimal weight loss
Effect on replication of other RNA viruses [6]: not the replication of other RNA viruses
Effect on replication of picornaviruses [7]: effective in blocking the replication of multiple picornaviruses
Effect on 3C protease activity [8]: significantly inhibited the activity of the 3C protease
EC50 [2]: 2100 nM
Airway inflammation and lung functions [9]: decrease airway inflammation and improve lung functions
Effect on PLpro activity [10]: no effect

COC[C@H]1C[C@@H](c2nc(-c3ccc4c(c3)COc3cc5c(ccc6nc([C@@H]7CC[C@H](C)N7C(=O)[C@@H](NC(=O)OC)C(C)C)[nH]c65)cc3-4)c[nH]2)N(C(=O)[C@H](NC(=O)OC)c2ccccc2)C1 [Velpatasvir]
EC50 [2]: 2000 nM

COc1ccc2cc1Oc1ccc(cc1)C[C@H]1c3c(cc4c(c3Oc3cc5c(cc3OC)CCN(C)[C@@H]5C2)OCO4)CCN1C [Cepharanthine]
EC50 [2]: 770 nM

COc1cc2c(Oc3ccc4[nH]c(C)cc4c3F)ncnc2cc1OCCCN1CCCC1 [Cediranib]
EC50 [2]: 520 nM

Cc1ccc(NC(=O)c2ccc(CN3CCNCC3)cc2)cc1Nc1nc(-c2cccnc2)cs1 [AB3280]
Inhibition of OC43 infection, dose-response validation (in words) [2]: maintains its antiviral activity

CN(C)CCCN1c2ccccc2CCc2ccc(Cl)cc21 [Clomipramine]
OC43 infection in drug-repurposing screen ([2]; 10 μM, 4 days): top hits
